# Experimental data published in patent US9539260B2, “Dihydro-benzo-oxazine and dihydro-pyrido-oxazine derivatives” (Novartis AG, priority 2012, dated 2017).
# Tests used:
# PI3K alpha = PI3K alpha (Homo sapiens (Human), UniProt P42336); experiment: Enzymatic PI3K alpha isoform inhibition (lipid kinase activity, Kinase-Glo luminescence); format: biochemical; conditions: Enzymatic assay
# Procedure: (§1) 1.1 Test of Lipid Kinase Activity […]
# (§2) In a more preferred assay, the kinase reaction is performed in a final volume of 10 μl per well of a low volume non-binding CORNING, 384 well black plate (Cat. No. #3676). The final concentrations of ATP and phosphatidyl inositol (PI) in the assay are 1 μM and 10 μg/mL, respectively. The reaction is started by the addition of ATP.
# (§3) The components of the assay are added per well as follows:
# (§4) The Z′ value is a universal measurement of the robustness of an assay. A Z′ between 0.5 and 1.0 is considered an excellent assay.
# (§5) IC50 is determined by a four parameter curve fitting routine that comes along with “excel fit”. A four parameter logistic equation is used to calculate IC50 values (IDBS XLfit) of the percentage inhibition of each compound at 8 concentrations (usually 10, 3.0, 1.0, 0.3, 0.1, 0.030, 0.010 and 0.003 μM). Alternatively, IC50 values are calculated using idbsXLfit model 204, which is a 4 parameter logistic model.
# (§6) Yet alternatively, for an ATP depletion assay, compounds of the formula I to be tested are dissolved in DMSO and directly distributed into a white 384-well plate at 0.5 μl per well. To start the reaction, 10 μl of 10 nM PI3 kinase and 5 μg/mL 1-alpha-phosphatidylinositol (PI) are added into each well followed by 10 μl of 2 μM ATP. The reaction is performed until approx 50% of the ATP is depleted, and then stopped by the addition of 20 μl of Kinase-Glo solution (Promega Corp., Madison, Wis., USA). The stopped reaction is incubated for 5 minutes and the remaining ATP is then detected via luminescence. IC50 values are then determined.
# PI3K delta = PI3K delta (Homo sapiens (Human), UniProt O00329); experiment: Enzymatic PI3K delta isoform inhibition (lipid kinase activity, Kinase-Glo luminescence); format: biochemical; conditions: Enzymatic assay
# PI3K delta, sequence (O00329 other isoform, or with tags, fused parts or gaps linker GGGGGG): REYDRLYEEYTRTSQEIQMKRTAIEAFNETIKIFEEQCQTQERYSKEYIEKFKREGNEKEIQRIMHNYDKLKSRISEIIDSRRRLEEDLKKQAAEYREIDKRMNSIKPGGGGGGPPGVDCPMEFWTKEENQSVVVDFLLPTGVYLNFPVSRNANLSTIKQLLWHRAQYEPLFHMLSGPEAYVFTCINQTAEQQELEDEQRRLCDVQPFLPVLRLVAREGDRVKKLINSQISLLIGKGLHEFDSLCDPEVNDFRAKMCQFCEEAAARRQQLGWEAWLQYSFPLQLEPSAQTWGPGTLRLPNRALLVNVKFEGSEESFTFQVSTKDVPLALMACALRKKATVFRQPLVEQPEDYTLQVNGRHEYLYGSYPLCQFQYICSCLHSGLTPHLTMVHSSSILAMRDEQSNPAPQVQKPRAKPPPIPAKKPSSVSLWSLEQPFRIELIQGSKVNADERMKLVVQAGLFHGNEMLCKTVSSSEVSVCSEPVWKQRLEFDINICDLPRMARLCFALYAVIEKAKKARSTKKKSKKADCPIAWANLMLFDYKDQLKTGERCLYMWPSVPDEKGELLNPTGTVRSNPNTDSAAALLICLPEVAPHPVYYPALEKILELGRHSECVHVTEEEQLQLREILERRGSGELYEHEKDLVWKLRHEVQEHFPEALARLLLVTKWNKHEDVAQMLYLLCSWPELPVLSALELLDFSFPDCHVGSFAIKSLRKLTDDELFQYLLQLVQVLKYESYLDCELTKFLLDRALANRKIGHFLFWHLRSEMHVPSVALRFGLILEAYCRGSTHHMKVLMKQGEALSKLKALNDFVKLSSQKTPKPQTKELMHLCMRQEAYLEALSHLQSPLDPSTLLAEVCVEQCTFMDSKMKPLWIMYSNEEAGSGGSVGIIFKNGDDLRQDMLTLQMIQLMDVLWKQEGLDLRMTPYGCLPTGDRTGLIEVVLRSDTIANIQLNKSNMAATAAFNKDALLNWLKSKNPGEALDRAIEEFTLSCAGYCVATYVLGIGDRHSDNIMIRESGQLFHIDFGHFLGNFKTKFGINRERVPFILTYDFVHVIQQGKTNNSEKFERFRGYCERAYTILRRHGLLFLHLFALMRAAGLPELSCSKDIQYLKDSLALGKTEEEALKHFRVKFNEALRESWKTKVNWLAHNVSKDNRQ
# Procedure: as §1, §2, §3, §4, §5, §6
# PI3K alpha, sequence (P42336 other isoform, or with tags, fused parts or gaps): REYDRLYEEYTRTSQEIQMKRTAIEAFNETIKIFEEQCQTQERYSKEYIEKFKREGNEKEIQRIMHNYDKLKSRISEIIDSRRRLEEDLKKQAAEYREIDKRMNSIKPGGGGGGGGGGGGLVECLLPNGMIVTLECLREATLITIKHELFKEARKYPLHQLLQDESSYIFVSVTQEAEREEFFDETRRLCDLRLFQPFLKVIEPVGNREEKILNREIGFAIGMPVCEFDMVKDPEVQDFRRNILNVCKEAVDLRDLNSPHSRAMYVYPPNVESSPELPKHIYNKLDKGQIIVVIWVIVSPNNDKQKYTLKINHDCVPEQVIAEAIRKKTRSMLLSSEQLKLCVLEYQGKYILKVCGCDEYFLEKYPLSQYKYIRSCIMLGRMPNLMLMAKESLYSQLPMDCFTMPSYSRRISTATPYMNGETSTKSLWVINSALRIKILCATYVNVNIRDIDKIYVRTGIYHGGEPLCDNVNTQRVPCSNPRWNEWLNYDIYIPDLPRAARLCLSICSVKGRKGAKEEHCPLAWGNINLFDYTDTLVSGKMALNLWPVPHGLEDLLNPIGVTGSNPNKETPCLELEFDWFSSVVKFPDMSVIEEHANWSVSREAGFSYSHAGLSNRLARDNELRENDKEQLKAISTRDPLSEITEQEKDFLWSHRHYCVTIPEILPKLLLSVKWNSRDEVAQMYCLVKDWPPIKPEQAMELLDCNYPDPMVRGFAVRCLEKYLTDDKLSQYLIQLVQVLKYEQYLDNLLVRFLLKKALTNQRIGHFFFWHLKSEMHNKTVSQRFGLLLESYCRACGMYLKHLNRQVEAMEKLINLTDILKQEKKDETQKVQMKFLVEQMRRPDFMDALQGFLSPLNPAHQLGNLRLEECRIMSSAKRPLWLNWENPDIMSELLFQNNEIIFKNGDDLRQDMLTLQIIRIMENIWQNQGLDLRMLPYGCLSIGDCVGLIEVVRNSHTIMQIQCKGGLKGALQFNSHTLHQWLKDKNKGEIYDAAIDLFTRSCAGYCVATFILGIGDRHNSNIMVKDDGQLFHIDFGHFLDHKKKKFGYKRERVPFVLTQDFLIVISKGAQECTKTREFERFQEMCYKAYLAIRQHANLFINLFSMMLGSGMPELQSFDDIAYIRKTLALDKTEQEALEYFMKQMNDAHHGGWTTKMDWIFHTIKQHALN
Structure (SMILES),IC50 (PI3K alpha),IC50 (PI3K delta)
"COc1ncc(N2CCOc3ccc(O[C@H]4CCN(C(=O)C5CCS(=O)(=O)C5)C4)cc32)cc1C (single isomer, unassigned) [Example B27, (1,1-Dioxo-tetrahydro-1lambda*6*-thiophen-3-yl)-{(S)-3-[4-(6-methoxy-5-methyl-pyridin-3-yl)-3,4-dihydro-2H-benzo[1,4]oxazin-6-yloxy]-pyrrolidin-1-yl}-methanone]",2510 nM,55 nM
"COc1ncc(N2CCOc3ccc(O[C@H]4CCN(C(=O)C5CCS(=O)(=O)C5)C4)cc32)cc1C (single isomer, unassigned) [Example B28, (1,1-Dioxo-tetrahydro-1lambda*6*-thiophen-3-yl)-{(S)-3-[4-(6-methoxy-5-methyl-pyridin-3-yl)-3,4-dihydro-2H-benzo[1,4]oxazin-6-yloxy]-pyrrolidin-1-yl}-methanone]",788 nM,12 nM
"COc1ncc(N2CCOc3ccc(O[C@H]4CCN(C(=O)C5CCOC5)C4)cc32)cc1C#N (single isomer, unassigned) [Example D28]",411 nM,5 nM
"COc1ncc(N2CCOc3ccc(O[C@H]4CCN(C(=O)C5CCOC5)C4)cc32)cc1C#N (single isomer, unassigned) [Example D29]",534 nM,3 nM
"COc1ncc(N2CCOc3ccc(O[C@H]4CCN(C(=O)C5CCC(OC)CC5)C4)cc32)cc1C#N (single isomer, unassigned) [Example D35]",414 nM,< 3 nM
"COc1ncc(N2CCOc3ccc(O[C@H]4CCN(C(=O)C5CCC(OC)CC5)C4)cc32)cc1C#N (single isomer, unassigned) [Example D36]",346 nM,–
"Cc1cc(N2CCOc3ccc(O[C@H]4CCN(C(=O)C5COCCO5)C4)cc32)cnc1S(C)(=O)=O (single isomer, unassigned) [Example H3]",559 nM,8 nM
"Cc1cc(N2CCOc3ccc(O[C@H]4CCN(C(=O)C5COCCO5)C4)cc32)cnc1S(C)(=O)=O (single isomer, unassigned) [Example H4]",848 nM,11 nM
"COc1cc(N2CCOc3ccc(O[C@H]4CCN(C(=O)C5COCCO5)C4)cc32)cnc1OC (single isomer, unassigned) [Example H5]",477 nM,11 nM
"COc1cc(N2CCOc3ccc(O[C@H]4CCN(C(=O)C5COCCO5)C4)cc32)cnc1OC (single isomer, unassigned) [Example H6]",846 nM,53 nM
"COc1cc(N2CCOc3ccc(O[C@H]4CCN(C(=O)C5CCS(=O)(=O)C5)C4)cc32)cnc1OC (single isomer, unassigned) [Example H9]",616 nM,11 nM
"COc1cc(N2CCOc3ccc(O[C@H]4CCN(C(=O)C5CCS(=O)(=O)C5)C4)cc32)cnc1OC (single isomer, unassigned) [Example H10]",727 nM,18 nM
"Cc1ncc(N2CCOc3ccc(O[C@H]4CCN(C(=O)C5CCOCC5)C4)cc32)cc1[N+](=O)[O-] [Example A4, {(S)-3-[4-(6-Methyl-5-nitro-pyridin-3-yl)-3,4-dihydro-2H-benzo[1,4]oxazin-6-yloxy]-pyrrolidin-1-yl}-(tetrahydro-pyran-4-yl)-methanone]",> 9100 nM,–
"COCc1ccc(N2CCOc3ccc(O[C@H]4CCN(C(=O)C5CCOCC5)C4)cc32)cn1 [Example A20, {(S)-3-[4-(6-Methoxymethyl-pyridin-3-yl)-3,4-dihydro-2H-benzo[1,4]oxazin-6-yloxy]-pyrrolidin-1-yl}-(tetrahydro-pyran-4-yl)-methanone]",> 9100 nM,–
"O=C(C1CCOCC1)N1CC[C@H](Oc2ccc3c(c2)N(c2ccnc(C(F)(F)F)c2)CCO3)C1 [Example A21, (Tetrahydro-pyran-4-yl)-{(S)-3-[4-(2-trifluoromethyl-pyridin-4-yl)-3,4-dihydro-2H-benzo[1,4]oxazin-6-yloxy]-pyrrolidin-1-yl}-methanone]",8430 nM,–
"CCC(=O)N1CC[C@H](Oc2ccc3c(c2)N(c2ccc(OC)c(S(=O)(=O)N4CCOCC4)c2)CCO3)C1 [Example A25, 1-((S)-3-{4-[4-Methoxy-3-(morpholine-4-sulfonyl)-phenyl]-3,4-dihydro-2H-benzo[1,4]oxazin-6-yloxy}-pyrrolidin-1-yl)-propan-1-one]",5760 nM,–
"CCC(=O)N1CC[C@H](Oc2ccc3c(c2)N(c2ccc(OC)c(S(=O)(=O)N4CCN(C)CC4)c2)CCO3)C1 [Example A27, 1-((S)-3-{4-[4-Methoxy-3-(4-methyl-piperazine-1-sulfonyl)-phenyl]-3,4-dihydro-2H-benzo[1,4]oxazin-6-yloxy}-pyrrolidin-1-yl)-propan-1-one]",> 9100 nM,–
"CCC(=O)N1CC[C@H](Oc2ccc3c(c2)N(c2ccnc(C#N)c2)CCO3)C1 [Example B3, 4-[6-((S)-1-Propionyl-pyrrolidin-3-yloxy)-2,3-dihydro-benzo[1,4]oxazin-4-yl]-pyridine-2-carbonitrile]",> 9100 nM,–
"[2H]C1([2H])COc2ccc(O[C@H]3CCN(C(=O)c4cn(C)cn4)C3)cc2N1c1cnc(OC)c(C#N)c1 [Example B30, 2-Methoxy-5-{6-[(S)-1-(1-methyl-1H-imidazole-4-carbonyl)-pyrrolidin-3-yloxy]-3,3-dideutero-2,3-dihydro-benzo[1,4]oxazin-4-yl}-nicotinonitrile]",–,15.5 nM
"CN(C)c1cc(N2CCOc3ccc(O[C@H]4CCN(C(=O)C5CCOCC5)C4)cc32)cnc1S(C)(=O)=O [Example B78, {(S)-3-[4-(5-Dimethylamino-6-methanesulfonyl-pyridin-3-yl)-3,4-dihydro-2H-benzo[1,4]oxazin-6-yloxy]-pyrrolidin-1-yl}-(tetrahydro-pyran-4-yl)-methanone]",243 nM,–
"COc1ncc(N2CCOc3ccc(O[C@H]4CCN(C(=O)c5cnon5)C4)cc32)cc1C#N [Example C7, 5-{6-[(S)-1-(Furazan-3-carbonyl)-pyrrolidin-3-yloxy]-2,3-dihydro-benzo[1,4]oxazin-4-yl}-2-methoxy-nicotinonitrile]",> 9100 nM,–
"COc1ncc(N2CCOc3ccc(O[C@H]4CCN(C(=O)C5CCOCC5)C4)cc32)cc1C#N [Example D4, 2-Methoxy-5-{6-[(S)-1-(tetrahydro-pyran-4-carbonyl)-pyrrolidin-3-yloxy]-2,3-dihydro-benzo[1,4]oxazin-4-yl}-nicotinonitrile]",236 nM,–
"COc1ncc(N2CCOc3ccc(O[C@H]4CCN(C(=O)CN5CCOCC5)C4)cc32)cc1C#N [Example D7, 2-Methoxy-5-{6-[(S)-1-(2-morpholin-4-yl-acetyl)-pyrrolidin-3-yloxy]-2,3-dihydro-benzo[1,4]oxazin-4-yl}-nicotinonitrile]",234 nM,–
"COc1ncc(N2CCOc3ccc(O[C@H]4CCN(C(=O)C5CCN(C)CC5)C4)cc32)cc1C#N [Example D14, 2-Methoxy-5-{6-[(S)-1-(1-methyl-piperidine-4-carbonyl)-pyrrolidin-3-yloxy]-2,3-dihydro-benzo[1,4]oxazin-4-yl}-nicotinonitrile]",415 nM,–
"COc1ncc(N2CCOc3ccc(N[C@H]4CCN(C(=O)C5CCOCC5)C4)cc32)cc1C#N [Y, 2-Methoxy-5-{6-[(S)-1-(tetrahydro-pyran-4-carbonyl)-pyrrolidin-3-ylamino]-2,3-dihydro-benzo[1,4]oxazin-4-yl}-nicotinonitrile]",1920 nM,–
